In test [1] the test system is massive, pedunculated keloids. Conditions: cited from earlier work.
Test [2] relates to breast cancer model (MMTV-PyMT). The following applies: cited from earlier work.
For the next test, the target named is T1, Bovine LOX (Bos taurus, UniProt P33072).
T1 sequence (P33072 170-418): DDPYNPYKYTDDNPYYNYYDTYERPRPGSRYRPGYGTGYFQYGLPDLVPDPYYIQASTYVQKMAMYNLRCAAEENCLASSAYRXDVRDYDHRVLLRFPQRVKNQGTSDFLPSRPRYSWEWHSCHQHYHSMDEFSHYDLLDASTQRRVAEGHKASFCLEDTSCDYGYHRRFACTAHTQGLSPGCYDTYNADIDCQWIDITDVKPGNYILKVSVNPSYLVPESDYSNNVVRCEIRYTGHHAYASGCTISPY
In words: LOX inhibition, hydrogen peroxide Amplex Red oxidation assay. In kind it is biochemical. Conditions: 2 h incubation with enzyme at 37 °C. The method, then: (§1) LOX and LOXL protein family members can be acquired as recombinant active proteins from commercial sources, or extracted from animal tissues like bovine aorta, tendons, pig skin; or prepared from cell cultures. The inhibitory effects of the compounds of the present invention were tested against the given LOX or LOXL preparation using a method based on the detection of hydrogen peroxide with an Amplex Red oxidation assay [Zhou et al, 1997]. The assay was developed using either 384 or 96 well format. Briefly, in a standard black, clear bottom 384 well plate assay 25 µL of a dilution of any of the isoenzymes and orthologues in 1.2 M urea, 50 mM sodium borate buffer (pH 8.2) were added into each well in the presence of […] and 0.5 mM pargyline (to inhibit SSAO and MAO-B and MAO-A, respectively; not necessary if the enzyme is from a recombinant or purified form). […] of a reaction mixture containing twice the KM concentration of putrescine (Sigma Aldrich, e.g. 20 mM for LOX and LOXL1 or 10 mM for LOXL2 and 4 mM for LOXL3 and LOXL4), 120 µM Amplex Red (Thermo Fisher Scientific) and 1.5 U/mL horseradish peroxidase (Sigma Aldrich) prepared in 1.2 M urea, 50 mM sodium borate buffer (pH 8.2) were then added to the corresponding wells. The above volumes were doubled in the case of 96 wells plate. The fluorescence (RFU) was read every 2.5 min for 30 min at 37 °C, excitation 544 nm and emission 590 (Optima; BMG labtech). The slope/min of the kinetics for each well was calculated using MARS data analysis software (BMG labtech) and this value was used to deduce the IC50 value (Dotmatics). The ability of the inventive compounds to inhibit the amine oxidase activity of LOX and other family members is shown in Table 5.

A further test addresses T2, LOXL2 (Homo sapiens, UniProt Q9Y4K0).
T2 sequence (Q9Y4K0 26-774): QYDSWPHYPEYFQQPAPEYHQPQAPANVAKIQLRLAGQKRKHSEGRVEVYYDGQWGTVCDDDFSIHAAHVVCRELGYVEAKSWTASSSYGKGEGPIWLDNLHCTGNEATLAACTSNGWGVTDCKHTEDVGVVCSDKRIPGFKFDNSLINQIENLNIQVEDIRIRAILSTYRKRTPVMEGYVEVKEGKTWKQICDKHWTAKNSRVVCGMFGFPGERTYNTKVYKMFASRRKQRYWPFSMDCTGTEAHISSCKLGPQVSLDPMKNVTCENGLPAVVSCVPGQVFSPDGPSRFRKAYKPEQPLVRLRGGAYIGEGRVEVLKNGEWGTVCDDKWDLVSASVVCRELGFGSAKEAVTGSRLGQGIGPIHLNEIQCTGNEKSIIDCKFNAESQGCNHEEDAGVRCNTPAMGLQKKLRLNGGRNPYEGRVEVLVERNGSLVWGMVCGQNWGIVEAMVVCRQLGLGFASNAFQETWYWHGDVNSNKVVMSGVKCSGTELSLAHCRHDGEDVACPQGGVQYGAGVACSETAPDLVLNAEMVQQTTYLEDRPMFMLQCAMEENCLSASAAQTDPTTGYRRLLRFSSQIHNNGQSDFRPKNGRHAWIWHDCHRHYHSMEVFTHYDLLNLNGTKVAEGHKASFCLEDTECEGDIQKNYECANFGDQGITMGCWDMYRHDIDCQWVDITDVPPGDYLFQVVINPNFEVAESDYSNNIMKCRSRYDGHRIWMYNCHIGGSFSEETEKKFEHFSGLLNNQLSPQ
In words: LOXL2 inhibition, Amplex Red oxidation assay. The following applies: 2 h incubation with enzyme at 37 °C; read-out: Human LOXL2 Activity IC50. In kind it is biochemical. The method, then: as §1

Like-named read-outs stand apart in the source and are kept apart here. Some results are limits rather than exact numbers.

As a reminder, the IC50 is the concentration that inhibits the measured activity by half.

Turning to `COc1cc2c(c(OC)c1OC)-c1ccc(OC)c(=O)cc1[C@@H](NC(C)=O)CC2` [colchicine], in test [1] (human, in vivo), the “Effect on surface scarring” value is given as “measurable beneficial effect on surface scarring”.

As to `CS(=O)(=O)c1cc(-c2ccccc2)cc(S(=O)(=O)c2ccc(CN)s2)c1` [CCT365623], the Metastasis and survival entry in test [2] was “reduce metastasis and increase survival”.

Regarding `CC(C)(S)[C@@H](N)C(=O)O` [penicillamine], in test [1] (BAPN or penicillamine, and colchicine, following excision of keloid and grafting), the “Effect on surface scarring” value was “measurable beneficial effect on surface scarring”.

Turning to `NC/C(=C\F)CS(=O)(=O)c1cccc2c1OCCO2` [Compound 33, (E)-2-(((2,3-dihydrobenzo[b][1,4]dioxin-5-yl)sulfonyl)methyl)-3-fluoroprop-2-en-1-amine], the 50% inhibitory concentration (IC50) at Bovine LOX and at LOXL2 was < 10000 nM throughout.

For `NC/C(=C\F)CS(=O)(=O)c1cccc(C(F)(F)F)c1` [Compound 10, (E)-3-fluoro-2-(((3-(trifluoromethyl)phenyl)sulfonyl)methyl)prop-2-en-1-amine], the IC50 against Bovine LOX and at LOXL2 was < 2000 nM throughout.

On to `NC/C(=C\F)CS(=O)(=O)c1ccccc1Cl` [Compound 6, (E)-2-(((2-chlorophenyl)sulfonyl)methyl)-3-fluoroprop-2-en-1-amine], for which the half-maximal inhibitory concentration (IC50) on Bovine LOX and on LOXL2 was < 5000 nM throughout.

In the case of `NC/C(=C\F)CS(=O)(=O)c1cccc(Br)c1` [Compound 15, (E)-2-(((3-bromophenyl)sulfonyl)methyl)-3-fluoroprop-2-en-1-amine], the half-maximal inhibitory concentration (IC50) against Bovine LOX and at LOXL2 was < 2000 nM throughout.

In the case of `Cc1ccn(-c2cccc(S(=O)(=O)C/C(=C/F)CN)c2)n1` [Compound 18, (E)-3-fluoro-2-(((3-(3-methyl-1H-pyrazol-1-yl)phenyl)sulfonyl)methyl)prop-2-en-1-amine], the half-inhibitory concentration (IC50) at Bovine LOX and on LOXL2 was < 2000 nM throughout.

Turning to `NC/C(=C\F)CS(=O)(=O)c1cccc(CN2CCCCCC2=O)c1` [Compound 36, (E)-1-(3-((2-(aminomethyl)-3-fluoroallyl)sulfonyl)benzyl)azepan-2-one], the values for the 50% inhibitory concentration (IC50) on Bovine LOX and at LOXL2 were < 10000 nM and < 5000 nM, respectively.

In the case of `Cc1ncc(-c2cccc(S(=O)(=O)C/C(=C/F)CN)c2)s1` [Compound 17, (E)-3-fluoro-2-(((3-(2-methylthiazol-5-yl)phenyl)sulfonyl)methyl)prop-2-en-1-amine], the half-inhibitory concentration (IC50) at Bovine LOX and at LOXL2 was < 2000 nM in each case.

Values taken from US20260364030A1, “NOVEL SELECTIVE INHIBITORS OF LYSYL OXIDASES” (Syntara Limited, priority 2022, published 2026).
